Here are results for 3 molecules from DBAASP.

Among the test systems are Candida albicans C627; Escherichia coli DC2; Escherichia coli UB1005; Escherichia coli K88.
Common to all, as to experiment: ≥ marks a high value that may be exact or a test limit, other limits are often not marked, values filed in µg/mL are converted to µM
For assay [1], the system named is Mycobacterium tuberculosis WXY.
In assay [2] the test system is Mycobacterium tuberculosis CAS3.
Assay [3] has as its system Mycobacterium tuberculosis H37Rv.
For assay [4], the system named is Aeromonas salmonicida 97-4.
Assay [5] deals with Pseudomonas aeruginosa K799.
Assay [6] has as its system Aeromonas salmonicida 99-1.
In assay [7] the test system is Salmonella enterica subsp. enterica serovar Typhimurium ATCC 14028s.
Assay [8] relates to Escherichia coli CGSC 4908.
Assay [9] has as its system Salmonella enterica serovar typhimurium MS7953s.
The subject of assay [10] is Pseudomonas aeruginosa Z61.
In assay [11] the test system is Staphylococcus aureus C623.
The subject of assay [12] is Staphylococcus epidermidis C621.
Assay [13] deals with Lacticaseibacillus rhamnosus 1.0936.
For assay [14], the system named is Streptococcus agalactiae BNCC 185941.
The subject of assay [15] is Staphylococcus aureus ATCC 29213.
The subject of assay [16] is Salmonella enterica subsp. enterica serovar Typhimurium ATCC 14028.
The test system of assay [17] is Lacticaseibacillus rhamnosus 1.0911.
Assay [18] concerns Escherichia coli O157:H7 CICC 21530.
Assay [19] concerns Staphylococcus epidermidis ATCC 12228.
In assay [20] the test system is Salmonella enterica subsp. enterica serovar Choleraesuis CVCC 503.
Assay [21] has as its system Lacticaseibacillus rhamnosus 1.9021.
For assay [22], the system named is Pseudomonas aeruginosa ATCC 27853.
Assay [23] has as its system Pseudomonas aeruginosa PAO1.
The test system of assay [24] is Salmonella enterica subsp. enterica serovar Pullorum C79-13.
In assay [25] the test system is Staphylococcus aureus ATCC 43300.
The test system of assay [26] is Lacticaseibacillus rhamnosus 8014.

SMILES strings stand for the structures. Converted amounts (≈) assume the structure as drawn. Bounds are passed on as bounds.

In the case of `CC(C)C[C@H](NC(=O)[C@H](C)NC(=O)[C@H](C)NC(=O)[C@@H](NC(=O)[C@H](C)N)C(C)C)C(=O)N[C@@H](CC(C)C)C(=O)N[C@@H](CCCN=C(N)N)C(=O)N[C@@H](Cc1c[nH]c2ccccc12)C(=O)N[C@@H](Cc1c[nH]c2ccccc12)C(=O)N[C@@H](CO)C(=O)N[C@@H](CCCN=C(N)N)C(=O)N[C@@H](Cc1c[nH]c2ccccc12)C(=O)N[C@@H](Cc1c[nH]c2ccccc12)C(=O)N[C@@H](C)C(=O)N[C@@H](C)C(=O)O` [AVAALLRWWSRWWAA], the minimal inhibitory concentration (MIC) in assay [1], in assay [2] and in assay [3] was not below 40.7 µM in each case.

Take `CC(=O)[C@H](C)NC(=O)[C@H](Cc1ccccc1)NC(=O)[C@H](Cc1cnc[nH]1)NC(=O)[C@H](CCCNC(=N)N)NC(=O)[C@H](CCC(N)=O)NC(=O)[C@H](CO)NC(=O)[C@H](CC(C)C)NC(=O)[C@H](CCCNC(=N)N)NC(=O)[C@H](CCC(=O)O)NC(=O)CNC(=O)[C@H](CCCCN)NC(=O)[C@@H](NC(=O)[C@H](Cc1ccccc1)NC(=O)[C@H](Cc1c[nH]c2ccccc12)NC(=O)[C@H](CCCCN)NC(=O)[C@H](CCCCN)NC(=O)[C@H](Cc1c[nH]c2ccccc12)NC(=O)CN)[C@@H](C)O` [GWKKWFTKGERLSQRHFA]: the minimal inhibitory concentration (MIC) was 28.3 µM (≈ 63.9 µg/mL) in the assay with Candida albicans C627; 28.3 µM (≈ 63.9 µg/mL) with Escherichia coli DC2; 28.3 µM (≈ 63.9 µg/mL) with Escherichia coli UB1005; not below 56.6 µM in assay [4]; 28.3 µM (≈ 63.9 µg/mL) in assay [5]; 28.3 µM (≈ 63.9 µg/mL) in assay [6]. Besides, the minimal inhibitory concentration (MIC) in assay [7] came out at 28.3 µM (≈ 63.9 µg/mL); in [8] it was 28.3 µM (≈ 63.9 µg/mL); in assay [9], 14.1 µM (≈ 32 µg/mL); in [10], 28.3 µM (≈ 63.9 µg/mL); in assay [11], 28.3 µM (≈ 63.9 µg/mL); in assay [12], 28.3 µM (≈ 63.9 µg/mL).

Turning to `CC(C)C[C@H](NC(=O)[C@H](CCCCN)NC(=O)CNC(=O)[C@H](CCCCN)NC(=O)[C@H](CC(C)C)NC(=O)[C@H](Cc1c[nH]c2ccccc12)NC(=O)[C@H](CC(C)C)NC(=O)[C@H](CCCCN)NC(=O)CNC(=O)[C@H](CCCCN)NC(=O)[C@@H](N)CC(C)C)C(N)=O` [LKGKLWLKGKL], the minimum inhibitory concentration (MIC) in [13] is not below 128 µM; in [14], not below 128 µM; in [15], more than 128 µM; in assay [16], 64 µM (≈ 82.1 µg/mL); in [17] it was not below 128 µM; in assay [18] it was not below 64 µM. The minimum inhibitory concentration (MIC) was more than 128 µM in assay [19]; not below 128 µM in assay [20]; not below 128 µM in assay [21]; 8 µM (≈ 10.3 µg/mL) in the assay with Escherichia coli K88; 32 µM (≈ 41 µg/mL) in assay [22]; 32 µM (≈ 41 µg/mL) in assay [23]. Besides, the MIC in [24] is 8 µM (≈ 10.3 µg/mL); in assay [25], more than 128 µM; in assay [26], not below 128 µM.

One may read the MIC as the lowest concentration that inhibits growth of the organism. The low end stands for greater potency, the high end for weaker potency.
